Experimental findings from US20230339949A1, “HETEROCYCLIC SUBSTITUTED FUSED y-CARBOLINE DERIVATIVE, PREPARATION METHOD THEREFOR, INTERMEDIATE THEREOF AND USE THEREOF” (SHUJING BIOPHARMA CO., LTD, priority 2020, published 2023) are described below.

The structures appear in SMILES notation. Read-outs that look alike come from different tables or passages of the source.

One data set is described as follows: PK test on ICR mice. Particulars: mouse; male ICR mice, oral gavage, 5 mg/kg single dose, plasma. Format: in vivo. On the procedure:
Male ICR mice were administered by oral gavage administration, and blood concentration of the compound of the present disclosure in mice was measured, and PK parameters were calculated, and the pharmacokinetics of the compound of the present disclosure was evaluated.
Preparation of drug: The test compound was taken, and physiological saline was added, and ultrasonication was performed.
Administration route and dosage: administered by oral gavage, administration dosage: 5 mg/kg, administration volume: 10 mL/kg.
(§1) Administration frequency and duration: single dose.
ICR mice were stratified by body weight and then randomly grouped into 3 mice per group, and fasted overnight before the experiment. After oral gavage administration, at 0, 0.033, 0.083, 0.5, 1, 2, 4, 6 and 8 hours, […] of blood was collected from the mandibular vein or saphenous vein of mice and put into sample tubes containing the anticoagulant sodium heparin, and the sample tube was placed in wet ice, centrifuged at 4 000 r·min^−1 for 10 minutes, and the plasma was separated and cryopreserved in a refrigerator at −80° C. for testing.
The blood concentration-time data of the compound of the present disclosure measured by gavage administration were substituted into Winnonlin 8.2 program to calculate the main pharmacokinetic parameters. Tmax and Cmax were measured values, AUC0-t and AUC0-∞ values were calculated by trapezoidal method, and t1/2 was calculated by the concentration point at the end of elimination phase via semi-logarithmic drawing method.

Data set [1] has as its system MK-801 induced hyperactivity behavior. As to the kind of experiment: MK-801 induced hyperactivity behavior in mice. Format: in vivo, ICR mice. Particulars: for ED50: Mus musculus, read-out: ED50 (half effective dose). On the procedure:
The efficacy of the compounds of the present disclosure was evaluated by high activity model of mice induced by intraperitoneal injection of MK-801.
(§2) Experimental animals: ICR mice, male, 8 mice/group, Spelford (Beijing) Biotechnology Co., Ltd.
Preparation of drug: the test compounds were taken, and pure water was added, and ultrasonication was performed.
Administration route and method: gavage administration, 10 mL/kg (body weight).
as §1
Animals were stratified by body weight and then randomly divided into blank group, model group, and administration group, and detailed information of administration is shown in the following table.
Mice were stratified according to body weight and then randomly divided into model group, blank group and each administration group. One hour after the gavage administration of solvent or drug, 0.3 mg/kg MK-801 was injected intraperitoneally (the blank group was injected with the same volume of physiological saline), and then the mice were put into an independent activity box (a black polyethylene box with the specification of 29 cm×29 cm×30 cm) for video recording for 60 minutes, and video analysis was performed at the end of the recording to evaluate the activity of the mice.
(§3) The experimental data were expressed as x±SD, and SPSS statistical software was used to test the homogeneity of variance. If the variance was homogeneous, single factor analysis of variance was performed, and Dunnett t test is used for pairwise comparison. The ED50 was calculated by nonlinear fitting with GraphPad Primis5 software.

Data set [2] concerns DOI-induced head-shaking behavior. Description: DOI-induced head-shaking behavior in mice. It is filed as in vivo, ICR mice. Particulars: Mus musculus; male ICR mice, single gavage dose 1 h before DOI 1 mg/kg i.p., head-shakes counted 0-20 min; read-out: ED50 (half effective dose). As for the experimental part: The efficacy of the compounds of the present disclosure was evaluated by the mice model of head-shaking behavior induced by intraperitoneal injection of (±) DOI (a hallucinogenic agent usually used to replicate anti-schizophrenic animal model).
as §2
Preparation of drug: the test compounds were taken, and solvent was added, and ultrasonication was performed.
Administration route and method: oral gavage administration, 10 mL/kg (body weight).
as §1
Animals were stratified by body weight and then randomly divided into blank group, model group, and administration groups, and detailed information of administration is shown in the following table.
Mice were stratified according to body weight and then randomly divided into model group, blank group and each administration group. One hour after the animals were gavage administration of the solvent or drugs, they were placed in a beaker (13 cm in diameter, 19 cm in height) with fresh padding, and the model drug DOI was injected intraperitoneally at a dose of 1 mg/kg. The times of head-shaking were recorded within 0-20 minutes after DOI was injected intraperitoneally.
Head-shaking behavior is defined as rapid rotational twitch of mouse's head or wet dog-like shaking, which should be different from normal hair grooming or inquiry behavior.
as §3

Data set [3] deals with T1, D2 (CHO-K1/D2L/Gα15 cells) (Homo sapiens, UniProt P14416).
T1 construct: expressed in transfected cells; host or cells: CHO-K1 (CHO-K1/D2L/Gα15, cryopreserved cells)
Description: Functional activity test on receptor (cryopreservation cells), calcium FLIPR, D2. It is filed as cell-based. Particulars: for IC50: cryopreserved CHO-K1/D2L/Gα15 cells, calcium fluorescence (FLIPR), antagonist mode vs dopamine EC80; for D2/5-HT2A ratio: ratio of D2 IC50 to 5-HT2A IC50, Test Example 1. As for the experimental part: Test Example 1: Functional Activity Test of Each Compound on Receptor (Cryopreservation Cells) [table] • (1) Cells was taken out from a liquid nitrogen tank, and the tube cap was loosened and inverted to make the liquid nitrogen flow out of the tube, then the cryopreservation tube was tightened. • (2) The cryopreservation tube was shaken rapidly at 37° C. […] • (1) Preparation of 250 mM probenecid solution: 1 mL experimental buffer was added into a tube containing 77 mg powder, and the powder was dissolved by vortex oscillation. • (2) Preparation of 2× fluorescent probe solution: A bottle of fluorescent probe dry powder was taken out to balance to room temperature, and 10 mL of experimental buffer solution and 200 μL of 250 mM probenecid solution were added thereto, and the bottle was scrolled and let stand for 5 minutes to ensure complete dissolution, and then the bottle was scrolled again. • a) Preparation of agonist compound plate (test of EC80): […] The compound to be tested was diluted 3-fold at 10 concentration points using experimental buffer in the compound plate (Greiner-781280), with an initial concentration of 3 μM and 30 μL per well; the antagonistic positive compounds (Spiperone and Ketanserin) were diluted 3-fold at 10 concentration points using experimental buffer, with an initial concentration of 1 μM and 30 μL per well. DMSO concentration was not higher than 3%. • (2) Cell preparation: Cells was taken out from the incubator, and 20 μL of prepared 2× fluorescent probe solution was added thereto, incubated at 37° C. for 50 minutes, then equilibrated at room temperature for 10 minutes. • a) The cell plate and agonist compound plate were put into the instrument, and the program of reading the plate was run. • b) 10 μL was transferred from the agonist compound plate to the cell plate, and fluorescence signal was read. • c) The EC80 of agonist was calculated using Screenworks software and 6×EC80 concentration was prepared for later use.

Data set [4] concerns the target T2, 5-HT2A (CHO-K1/5HT2A cells) (Homo sapiens, UniProt P28223).
T2 construct: expressed in transfected cells; host or cells: CHO-K1 (CHO-K1/5HT2A, cryopreserved cells)
Description: Functional activity test on receptor (cryopreservation cells), calcium FLIPR, 5-HT2A. Format: cell-based.
Description: • (1) Cells was taken out from a liquid nitrogen tank, and the tube cap was loosened and inverted to make the liquid nitrogen flow out of the tube, then the cryopreservation tube was tightened. • (2) The cryopreservation tube was shaken rapidly at 37° C. […] 20 μL cell suspension was taken out and counted by cell counter. • (6) Dilution according to the specified conditions: 1×10^6 cells /mL, 20 μL cell suspension was added into each well of the cell plate, and finally the concentration of each well is 20,000 cells/well sequentially. • (7) The cell plate was cultured in an incubator with 5% CO2 and at 37° C. for 16-24 hours. […]
• a) The cell plate and agonist compound plate were put into the instrument, and the program of reading the plate was run. • b) 10 μL was transferred from the agonist compound plate to the cell plate, and fluorescence signal was read. • c) The EC80 of agonist was calculated using Screenworks software and 6×EC80 concentration was prepared for later use. […]

Setting [5] is: male ICR mice, single gavage dose 1 h before MK-801 0.3 mg/kg i.p., activity recorded 60 min.

T1 sequence (P14416 whole entry): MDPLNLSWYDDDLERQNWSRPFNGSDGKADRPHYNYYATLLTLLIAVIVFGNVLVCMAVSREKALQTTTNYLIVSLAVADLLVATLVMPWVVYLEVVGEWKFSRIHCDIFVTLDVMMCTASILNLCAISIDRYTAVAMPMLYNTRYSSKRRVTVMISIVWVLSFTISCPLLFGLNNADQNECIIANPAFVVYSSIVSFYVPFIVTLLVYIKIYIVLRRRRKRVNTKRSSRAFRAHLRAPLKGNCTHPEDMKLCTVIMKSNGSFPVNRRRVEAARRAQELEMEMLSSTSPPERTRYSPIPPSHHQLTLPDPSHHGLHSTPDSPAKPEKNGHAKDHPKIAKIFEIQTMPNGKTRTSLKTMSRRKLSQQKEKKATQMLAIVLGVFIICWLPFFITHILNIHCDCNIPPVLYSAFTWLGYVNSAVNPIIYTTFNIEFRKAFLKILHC
T2 sequence (P28223 whole entry): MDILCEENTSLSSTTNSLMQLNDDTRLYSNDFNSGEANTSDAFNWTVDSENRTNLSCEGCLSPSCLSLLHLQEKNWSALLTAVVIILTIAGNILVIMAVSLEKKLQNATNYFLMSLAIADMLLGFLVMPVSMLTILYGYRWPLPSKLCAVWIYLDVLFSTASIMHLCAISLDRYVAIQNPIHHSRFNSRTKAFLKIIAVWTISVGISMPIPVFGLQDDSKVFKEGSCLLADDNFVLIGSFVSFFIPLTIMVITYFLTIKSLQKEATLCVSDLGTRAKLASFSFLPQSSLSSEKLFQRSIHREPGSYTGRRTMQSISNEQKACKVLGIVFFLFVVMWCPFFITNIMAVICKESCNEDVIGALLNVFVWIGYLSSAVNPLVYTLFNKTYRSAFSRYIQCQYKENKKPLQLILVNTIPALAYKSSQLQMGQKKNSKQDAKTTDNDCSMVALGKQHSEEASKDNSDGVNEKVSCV

As to `CN1C(=O)CN2c3c1cccc3[C@]1(C)CN(CCCC(=O)c3ccc(F)cc3)CC[C@H]21` [Embodiment 1-A, (6bR,10aS)-8-(4-(4-fluorophenyl)-4-oxobutyl)-3,6b-dimethyl-6b,7,8,9,10,10a-hexahydro-1H-pyrido[3′,4′:4,5]pyrrolo [1,2,3-de]quinoxalin-2(3H)-one], in “PK test on ICR mice”, the total exposure AUC(0-inf) was determined as 190 ng·h/mL, the AUC(0-t) came out at 155 ng·h/mL, the Cmax is 109 ng/mL and the Tmax came to 0.17 h. The half-life in “PK test on ICR mice” is 3.14 h. For the same molecule, in data set [1] (setting [5]), the ED50 is 0.08 mg/kg and the “MED (lowest effective dose)” value was 0.03 mg/kg. In addition, the ED50 in data set [2] is 0.024 mg/kg.

For the molecule `CN1CCN2c3c(cccc31)[C@@H]1CN(CCCC(=O)c3ccc(F)cc3)CC[C@@H]12` [ITI-007, Lumateperone, reference compound], in data set [3], the 50% inhibitory concentration (IC50) came to 569 nM and the D2/5-HT2A ratio turned out to be 4.75. Further, in data set [4] (cryopreserved CHO-K1/5HT2A cells, calcium fluorescence (FLIPR), antagonist mode vs serotonin EC80, read-out: 5-HT2A IC50), the IC50 is 120 nM. In addition, in “PK test on ICR mice”, the AUC(0-inf) came to 59.1 ng·h/mL, the AUC(0-t) stood at 39.3 ng·h/mL, the highest level (Cmax) was 13.5 ng/mL and the Tmax was determined as 0.28 h. The molecule further gave a half-life in “PK test on ICR mice” of 5 h. In data set [1] (setting [5]), the median effective dose (ED50) turned out to be 1.03 mg/kg and the “MED (lowest effective dose)” value was 1 mg/kg.

`CN1C(=O)CN2c3c1cccc3C1(C)CN(CCCC(=O)c3ccc(F)cc3)CCC21` (centres unmarked) [Embodiment 1, 8-(4-(4-fluorophenyl)-4-oxobutyl)-3,6b-dimethyl-6b,7,8,9,10,10a-hexahydro-1H-pyrido[3′,4′:4,5]pyrrolo[1,2,3-de]quinoxalin-2(3H)-one]: in data set [3], the concentration for half-maximal inhibition (IC50) was 662 nM and the D2/5-HT2A ratio turned out to be 13.09. Also, in data set [4], the IC50 was 50.5 nM. For the same molecule, the ED50 in data set [1] was found to be 0.11 mg/kg. Besides, the “MED (lowest effective dose)” value in data set [1] (setting [5]) is reported as 0.1 mg/kg.
